{"source": "paper PMC9120017", "about": "“Inhibition mechanism of the chloride channel TMEM16A by the pore blocker 1PBC” (Nature Communications, 2022)", "biological_target": "T1, mouse TMEM16A mutant V543A (Mus musculus, UniProt Q8BHY3, V543A)", "T1 construct": "expressed in transfected cells; host or cells: HEK293T", "T1 sequence (Q8BHY3 1-960 V543A)": "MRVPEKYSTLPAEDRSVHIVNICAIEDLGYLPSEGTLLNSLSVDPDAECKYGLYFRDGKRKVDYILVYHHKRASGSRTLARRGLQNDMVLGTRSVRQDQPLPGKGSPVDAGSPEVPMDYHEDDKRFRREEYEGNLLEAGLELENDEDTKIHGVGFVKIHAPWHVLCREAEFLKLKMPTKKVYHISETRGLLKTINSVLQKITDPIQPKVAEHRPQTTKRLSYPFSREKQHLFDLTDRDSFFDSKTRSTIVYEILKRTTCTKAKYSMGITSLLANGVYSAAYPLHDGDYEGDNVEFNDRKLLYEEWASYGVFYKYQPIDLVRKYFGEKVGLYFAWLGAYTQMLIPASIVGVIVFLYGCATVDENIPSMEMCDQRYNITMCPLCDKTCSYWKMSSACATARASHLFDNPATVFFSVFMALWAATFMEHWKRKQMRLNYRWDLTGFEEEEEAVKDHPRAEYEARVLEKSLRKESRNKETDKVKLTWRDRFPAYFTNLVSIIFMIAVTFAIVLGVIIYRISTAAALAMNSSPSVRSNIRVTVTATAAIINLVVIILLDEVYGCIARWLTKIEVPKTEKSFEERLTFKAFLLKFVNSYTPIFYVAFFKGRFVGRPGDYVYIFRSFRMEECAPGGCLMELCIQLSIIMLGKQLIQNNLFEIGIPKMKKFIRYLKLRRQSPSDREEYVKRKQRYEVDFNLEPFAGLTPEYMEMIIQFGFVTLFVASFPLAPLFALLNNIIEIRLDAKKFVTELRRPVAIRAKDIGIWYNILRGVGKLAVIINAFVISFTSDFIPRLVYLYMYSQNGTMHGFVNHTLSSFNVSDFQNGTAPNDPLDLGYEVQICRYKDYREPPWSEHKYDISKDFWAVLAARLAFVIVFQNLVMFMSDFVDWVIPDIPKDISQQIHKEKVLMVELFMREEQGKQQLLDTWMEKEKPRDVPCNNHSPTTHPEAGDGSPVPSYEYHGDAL", "assay": "Inside-out patch recording of 1PBC block, mutant V543A", "type": "cell-based", "details": "for remaining activity at 100 µM: 100 µM 1PBC", "protocol": "HEK293T cells (ATCC CRL-1573) were maintained in Dulbecco’s modified Eagle’s medium (DMEM; Sigma-Aldrich) supplemented with 10 U ml^−1 penicillin, 0.1 mg ml^−1 streptomycin (Sigma-Aldrich), 2 mM L-glutamine (Sigma-Aldrich), and 10% FBS (Sigma-Aldrich) in a humidified atmosphere containing 5% CO2 at 37 °C. HEK293S GnTI^− cells (ATCC CRL-3022) were maintained in HyClone HyCell TransFx-H medium (GE Healthcare) supplemented with 10 U ml^−1 penicillin, 0.1 mg ml^−1 streptomycin, 4 mM L-glutamine, 0.15% poloxamer 188 (Sigma-Aldrich), and 1% FBS in an atmosphere containing 5% CO2 at 185 rpm at 37 °C. The ac splice variant of mouse TMEM16A (UniProt ID: Q8BHY3), mouse TMEM16B (UniProt ID: Q8CFW1), or mouse TMEM16F (UniProt ID: Q6P9J9) bearing a 3C cleavage site, a Venus YFP, a Myc tag, and a Streptavidin-binding peptide (SBP) downstream of the open reading frame in a modified pcDNA3.1 vector (Invitrogen) were used as described previously[21],[31]. Mutations were introduced using a modified QuikChange method[58] and were verified by sequencing.\nHEK293T cells were transfected with 3–4 μg DNA per 6 cm Petri dish using the calcium phosphate co-precipitation method and were used within 24–96 h after transfection. Recordings were performed on inside-out patches excised from HEK293T cells expressing the construct of interest. Patch pipettes were pulled from borosilicate glass capillaries (O.D. 1.5 mm, I.D. 0.86 mm, Sutter Instrument) and were fire-polished with a microforge (Narishige) before use. Pipette resistance was typically 3–8 MΩ when filled with the recording solutions detailed below. Seal resistance was typically 4 GΩ or higher. Voltage-clamp recordings were made using Axopatch 200B, Digidata 1550, and Clampex 10.7 (Molecular Devices). Analog signals were filtered with the in-built 4-pole Bessel filter at 10 kHz and were digitized at 20 kHz. Solution exchange was achieved using a gravity-fed system through a theta glass pipette mounted on an ultra-fast piezo-driven stepper (Siskiyou). […] All recordings were performed at 20 °C.\nA symmetrical ionic condition was used throughout. Stock solution with Ca^2+-EGTA contained 150 mM NaCl, 5.99 mM Ca(OH)2, 5 mM EGTA, and 10 mM HEPES at pH 7.40. Stock solution with EGTA contained 150 mM NaCl, 5 mM EGTA, and 10 mM HEPES at pH 7.40. Free Ca^2+ concentrations were adjusted by mixing the stock solutions at the required ratios calculated using the WEBMAXC program (http://web.stanford.edu/~cpatton/webmaxcS.htm). Patch pipettes were filled with the stock solution with Ca^2+-EGTA, which has a free Ca^2+ concentration of 1 mM. 1PBC (ChemBridge) stock was reconstituted in anhydrous DMSO (Sigma-Aldrich) at 100 mM and stored at −20 °C. Working solutions with 1PBC were prepared by serial dilution. Unless otherwise stated, experiments were performed at a saturating Ca^2+ concentration as shown in Supplementary Table 1 and the primary data were corrected for current rundown as described previously[21],[25].\nConcentration-response relations, obtained from the ratio of the I-V plots before and after the application of the blocker, were fitted to the Hill equation,1 I/Imax=1/1+IC50/[blocker]^h where I/Imax is the normalized current responses, IC50 defines the concentration at which inhibition is at its half-maximum, and h is the Hill coefficient.", "note": "Like-named read-outs stand apart in the source and are kept apart here."}
{"smiles": "N#Cc1c(C(F)(F)F)cc(O)n2c1nc1ccccc12", "note": "[1PBC]", "values": [{"measurement": "IC50", "setting": "0 mV, 15 µM Ca2+", "result": 11.2, "unit": "µM"}, {"measurement": "remaining activity at 3 µM", "setting": "3 µM 1PBC, +80 mV, saturating Ca2+ (15 µM), read-out: I/Imax", "result": 76.2, "unit": "%"}, {"measurement": "remaining activity at 3 µM", "setting": "3 µM 1PBC, -80 mV, saturating Ca2+ (15 µM), read-out: I/Imax", "result": 86.2, "unit": "%"}, {"measurement": "remaining activity at 10 µM", "setting": "10 µM 1PBC, +80 mV, saturating Ca2+ (15 µM), read-out: I/Imax", "result": 42.8, "unit": "%"}, {"measurement": "remaining activity at 10 µM", "setting": "10 µM 1PBC, -80 mV, saturating Ca2+ (15 µM), read-out: I/Imax", "result": 67.5, "unit": "%"}, {"measurement": "remaining activity at 30 µM", "setting": "30 µM 1PBC, +80 mV, saturating Ca2+ (15 µM), read-out: I/Imax", "result": 20.1, "unit": "%"}, {"measurement": "remaining activity at 30 µM", "setting": "30 µM 1PBC, -80 mV, saturating Ca2+ (15 µM), read-out: I/Imax", "result": 43.8, "unit": "%"}, {"measurement": "remaining activity at 100 µM", "setting": "+80 mV, saturating Ca2+ (15 µM), read-out: I/Imax", "result": 6.35, "unit": "%"}, {"measurement": "remaining activity at 100 µM", "setting": "-80 mV, saturating Ca2+ (15 µM), read-out: I/Imax", "result": 18.7, "unit": "%"}, {"measurement": "remaining activity at 3 µM", "setting": "1PBC 3, 0 mV, read-out: fraction of unblocked current", "result": 79.2, "unit": "%"}, {"measurement": "remaining activity at 3 µM", "setting": "1PBC 3, 20 mV, read-out: fraction of unblocked current", "result": 77.2, "unit": "%"}, {"measurement": "remaining activity at 3 µM", "setting": "1PBC 3, 40 mV, read-out: fraction of unblocked current", "result": 76.3, "unit": "%"}, {"measurement": "remaining activity at 3 µM", "setting": "1PBC 3, 60 mV, read-out: fraction of unblocked current", "result": 75.5, "unit": "%"}, {"measurement": "remaining activity at 3 µM", "setting": "1PBC 3, 80 mV, read-out: fraction of unblocked current", "result": 76.2, "unit": "%"}, {"measurement": "remaining activity at 3 µM", "setting": "1PBC 3, 100 mV, read-out: fraction of unblocked current", "result": 78.6, "unit": "%"}, {"measurement": "remaining activity at 3 µM", "setting": "1PBC 3, 120 mV, read-out: fraction of unblocked current", "result": 80.1, "unit": "%"}, {"measurement": "remaining activity at 3 µM", "setting": "1PBC 3, 140 mV, read-out: fraction of unblocked current", "result": 83.1, "unit": "%"}, {"measurement": "remaining activity at 3 µM", "setting": "1PBC 3, -20 mV, read-out: fraction of unblocked current", "result": 81.1, "unit": "%"}, {"measurement": "remaining activity at 3 µM", "setting": "1PBC 3, -40 mV, read-out: fraction of unblocked current", "result": 83.5, "unit": "%"}, {"measurement": "remaining activity at 3 µM", "setting": "1PBC 3, -60 mV, read-out: fraction of unblocked current", "result": 84.9, "unit": "%"}, {"measurement": "remaining activity at 3 µM", "setting": "1PBC 3, -80 mV, read-out: fraction of unblocked current", "result": 86.2, "unit": "%"}, {"measurement": "remaining activity at 3 µM", "setting": "1PBC 3, -100 mV, read-out: fraction of unblocked current", "result": 87.3, "unit": "%"}, {"measurement": "remaining activity at 3 µM", "setting": "1PBC 3, -120 mV, read-out: fraction of unblocked current", "result": 88.4, "unit": "%"}, {"measurement": "remaining activity at 3 µM", "setting": "1PBC 3, -140 mV, read-out: fraction of unblocked current", "result": 89.4, "unit": "%"}, {"measurement": "remaining activity at 10 µM", "setting": "1PBC 10, 0 mV, read-out: fraction of unblocked current", "result": 52.5, "unit": "%"}, {"measurement": "remaining activity at 10 µM", "setting": "1PBC 10, 20 mV, read-out: fraction of unblocked current", "result": 48.7, "unit": "%"}, {"measurement": "remaining activity at 10 µM", "setting": "1PBC 10, 40 mV, read-out: fraction of unblocked current", "result": 45.6, "unit": "%"}, {"measurement": "remaining activity at 10 µM", "setting": "1PBC 10, 60 mV, read-out: fraction of unblocked current", "result": 43.7, "unit": "%"}, {"measurement": "remaining activity at 10 µM", "setting": "1PBC 10, 80 mV, read-out: fraction of unblocked current", "result": 42.8, "unit": "%"}, {"measurement": "remaining activity at 10 µM", "setting": "1PBC 10, 100 mV, read-out: fraction of unblocked current", "result": 43.3, "unit": "%"}, {"measurement": "remaining activity at 10 µM", "setting": "1PBC 10, 120 mV, read-out: fraction of unblocked current", "result": 44.7, "unit": "%"}, {"measurement": "remaining activity at 10 µM", "setting": "1PBC 10, 140 mV, read-out: fraction of unblocked current", "result": 45.8, "unit": "%"}, {"measurement": "remaining activity at 10 µM", "setting": "1PBC 10, -20 mV, read-out: fraction of unblocked current", "result": 56.4, "unit": "%"}, {"measurement": "remaining activity at 10 µM", "setting": "1PBC 10, -40 mV, read-out: fraction of unblocked current", "result": 60.6, "unit": "%"}, {"measurement": "remaining activity at 10 µM", "setting": "1PBC 10, -60 mV, read-out: fraction of unblocked current", "result": 64.3, "unit": "%"}, {"measurement": "remaining activity at 10 µM", "setting": "1PBC 10, -80 mV, read-out: fraction of unblocked current", "result": 67.5, "unit": "%"}, {"measurement": "remaining activity at 10 µM", "setting": "1PBC 10, -100 mV, read-out: fraction of unblocked current", "result": 70.7, "unit": "%"}, {"measurement": "remaining activity at 10 µM", "setting": "1PBC 10, -120 mV, read-out: fraction of unblocked current", "result": 73.2, "unit": "%"}, {"measurement": "remaining activity at 10 µM", "setting": "1PBC 10, -140 mV, read-out: fraction of unblocked current", "result": 75.5, "unit": "%"}, {"measurement": "remaining activity at 30 µM", "setting": "1PBC 30, 0 mV, read-out: fraction of unblocked current", "result": 27.4, "unit": "%"}, {"measurement": "remaining activity at 30 µM", "setting": "1PBC 30, 20 mV, read-out: fraction of unblocked current", "result": 23.9, "unit": "%"}, {"measurement": "remaining activity at 30 µM", "setting": "1PBC 30, 40 mV, read-out: fraction of unblocked current", "result": 21.7, "unit": "%"}, {"measurement": "remaining activity at 30 µM", "setting": "1PBC 30, 60 mV, read-out: fraction of unblocked current", "result": 20.8, "unit": "%"}, {"measurement": "remaining activity at 30 µM", "setting": "1PBC 30, 80 mV, read-out: fraction of unblocked current", "result": 20.1, "unit": "%"}, {"measurement": "remaining activity at 30 µM", "setting": "1PBC 30, 100 mV, read-out: fraction of unblocked current", "result": 20.1, "unit": "%"}, {"measurement": "remaining activity at 30 µM", "setting": "1PBC 30, 120 mV, read-out: fraction of unblocked current", "result": 21.6, "unit": "%"}, {"measurement": "remaining activity at 30 µM", "setting": "1PBC 30, 140 mV, read-out: fraction of unblocked current", "result": 22.4, "unit": "%"}, {"measurement": "remaining activity at 30 µM", "setting": "1PBC 30, -20 mV, read-out: fraction of unblocked current", "result": 30.9, "unit": "%"}, {"measurement": "remaining activity at 30 µM", "setting": "1PBC 30, -40 mV, read-out: fraction of unblocked current", "result": 34.9, "unit": "%"}]}
